PMC6081459, “Pathogen-derived HLA-E bound epitopes reveal broad primary anchor pocket tolerability and conformationally malleable peptide binding” (Nature Communications, 2018)
Read-outs that look alike come from different tables or passages of the source.

Tests used:
[1] = system: Mamu-E-restricted CD8+ T cells; type: cell-based, rhesus macaques
[2] = system: Mamu-E restricted CD8^+ T cells; type: cell-based, rhesus macaques (Macaca mulatta)
[3] = system: HLA-E-β2m complexes; type: binding, human; settings: 200 M excess peptide, 2 h at room temperature
[4] = system: HLA-E-β2m complexes; type: binding, human; settings: for Thermal melt (Tm) of peptide-refolded HLA-E-β2m complex: Protein Thermal Shift dye, 5 μg complex, ramp 25 to 95 °C, quadruplicate, median Derivative Tm

Row | Sequence | Rhesus CD8+ T cell responses to peptide presented by Mamu-E versus HLA-E [1] | Mamu-E restricted CD8+ T cell responses (IFNγ and/or TNFα, ICS) [2] | Displacement of VL9 from pre-refolded HLA-E-β2m-VL9 complexes (BN-PAGE) [3] | Thermal melt (Tm) of peptide-refolded HLA-E-β2m complex [4] | Mamu-E restricted CD8+ T cell responses (IFNγ and/or TNFα, ICS) ([2]; PBMC of six RM vaccinated with HIVGag-insert RhCMV68-1 vector, blocking with VL9 (MHC-E) or CLIP + anti-MHC-II) | Increase in stability (Tm) of the HLA-E-β2m complex versus no peptide refolded forms [4]
1 | RLPAKAPLL [Mtb44] | of comparable magnitude | elicited Mamu-E-restricted CD8^+ T cell responses | readily displaced | 50.2 °C | – | –
2 | RMYSPTSIL [RL9HIV] | of comparable magnitude | – | also displaced VL9 from HLA-E-β2m complexes | not possible to obtain a reproducible thermal melt pattern | elicited Mamu-E restricted CD8^+ T cell responses | –
3 | VMAPRTVLL [VL9, reference compound] | – | – | – | 47.5 °C | – | ≤ 10 °C
